Laboratory results from ChEMBL document CHEMBL1687777, “Membrane efflux and influx modulate both multidrug resistance and virulence of Klebsiella pneumoniae in a Caenorhabditis elegans model” (2010).
≈ marks a conversion by molar mass, not a printed value.

system: Klebsiella pneumoniae; assay: Antibacterial activity against porin deficient OmpA positive Klebsiella pneumoniae KPBj1 revertant by disk agar diffusion method; type: functional; conditions: not given

Row | SMILES | MIC
1 | CCn1cc(C(=O)O)c(=O)c2ccc(C)nc21 [NALIDIXIC ACID] | 2 µg/mL (≈ 8.61 µM)
2 | C[C@@H](O)[C@H]1C(=O)N2C(C(=O)O)=C(S[C@@H]3CN[C@H](C(=O)Nc4cccc(C(=O)O)c4)C3)[C@H](C)[C@H]12 | 0.5 µg/mL (≈ 1.05 µM)
3 | CO[C@@]1(NC(=O)Cc2cccs2)C(=O)N2C(C(=O)O)=C(COC(N)=O)CS[C@@H]21 [CEFOXITIN] | 32 µg/mL (≈ 74.9 µM)

system: Klebsiella pneumoniae; assay: Antibacterial activity against porin deficient OmpA positive Klebsiella pneumoniae KPBj3 revertant by disk agar diffusion method; type: functional; conditions: not given

Row | SMILES | MIC
4 | CCn1cc(C(=O)O)c(=O)c2ccc(C)nc21 [NALIDIXIC ACID] | 2 µg/mL (≈ 8.61 µM)
5 | C[C@@H](O)[C@H]1C(=O)N2C(C(=O)O)=C(S[C@@H]3CN[C@H](C(=O)Nc4cccc(C(=O)O)c4)C3)[C@H](C)[C@H]12 | 0.25 µg/mL (≈ 0.526 µM)
6 | CO[C@@]1(NC(=O)Cc2cccs2)C(=O)N2C(C(=O)O)=C(COC(N)=O)CS[C@@H]21 [CEFOXITIN] | 32 µg/mL (≈ 74.9 µM)

system: Klebsiella pneumoniae; assay: Antibacterial activity against porin deficient OmpA positive Klebsiella pneumoniae KPBj1 expressing efflux system by disk agar diffusion method; type: functional; conditions: not given

Row | SMILES | MIC
7 | CCn1cc(C(=O)O)c(=O)c2ccc(C)nc21 [NALIDIXIC ACID] | 32 µg/mL (≈ 138 µM)
8 | C[C@@H](O)[C@H]1C(=O)N2C(C(=O)O)=C(S[C@@H]3CN[C@H](C(=O)Nc4cccc(C(=O)O)c4)C3)[C@H](C)[C@H]12 | 0.5 µg/mL (≈ 1.05 µM)
9 | CO[C@@]1(NC(=O)Cc2cccs2)C(=O)N2C(C(=O)O)=C(COC(N)=O)CS[C@@H]21 [CEFOXITIN] | 32 µg/mL (≈ 74.9 µM)

system: Klebsiella pneumoniae; assay: microbe, parasite or virus in culture; conditions: KPBj1
Description: Antibacterial activity against porin deficient OmpA positive extended-spectrum beta-lactamase producing Klebsiella pneumoniae KPBj1 expressing efflux system by disk agar diffusion method

Row | SMILES | MIC
10 | CCn1cc(C(=O)O)c(=O)c2ccc(C)nc21 [NALIDIXIC ACID] | 32 µg/mL (≈ 138 µM)
11 | C[C@@H](O)[C@H]1C(=O)N2C(C(=O)O)=C(S[C@@H]3CN[C@H](C(=O)Nc4cccc(C(=O)O)c4)C3)[C@H](C)[C@H]12 | 4 µg/mL (≈ 8.41 µM)
12 | CO[C@@]1(NC(=O)Cc2cccs2)C(=O)N2C(C(=O)O)=C(COC(N)=O)CS[C@@H]21 [CEFOXITIN] | 32 µg/mL (≈ 74.9 µM)

system: Klebsiella pneumoniae; assay: Antibacterial activity against porin, OmpA positive extended-spectrum beta-lactamase producing Klebsiella pneumoniae KPBj1 revertant by disk agar diffusion method; type: functional; conditions: not given

Row | SMILES | MIC
13 | CCn1cc(C(=O)O)c(=O)c2ccc(C)nc21 [NALIDIXIC ACID] | 4 µg/mL (≈ 17.2 µM)
14 | C[C@@H](O)[C@H]1C(=O)N2C(C(=O)O)=C(S[C@@H]3CN[C@H](C(=O)Nc4cccc(C(=O)O)c4)C3)[C@H](C)[C@H]12 | 0.03 µg/mL (≈ 0.0631 µM)
15 | CO[C@@]1(NC(=O)Cc2cccs2)C(=O)N2C(C(=O)O)=C(COC(N)=O)CS[C@@H]21 [CEFOXITIN] | 2 µg/mL (≈ 4.68 µM)

system: Klebsiella pneumoniae; assay: Antibacterial activity against porin, OmpA positive extended-spectrum beta-lactamase producing Klebsiella pneumoniae KPBj1 by disk agar diffusion method; type: functional; conditions: not given

Row | SMILES | MIC
16 | CCn1cc(C(=O)O)c(=O)c2ccc(C)nc21 [NALIDIXIC ACID] | 32 µg/mL (≈ 138 µM)
17 | C[C@@H](O)[C@H]1C(=O)N2C(C(=O)O)=C(S[C@@H]3CN[C@H](C(=O)Nc4cccc(C(=O)O)c4)C3)[C@H](C)[C@H]12 | 0.125 µg/mL (≈ 0.263 µM)
18 | CO[C@@]1(NC(=O)Cc2cccs2)C(=O)N2C(C(=O)O)=C(COC(N)=O)CS[C@@H]21 [CEFOXITIN] | 8 µg/mL (≈ 18.7 µM)

system: Klebsiella pneumoniae; assay: Antibacterial activity against porin, OmpA positive Klebsiella pneumoniae KPBj3 revertant by disk agar diffusion method; type: functional; conditions: not given

Row | SMILES | MIC
19 | CCn1cc(C(=O)O)c(=O)c2ccc(C)nc21 [NALIDIXIC ACID] | 2 µg/mL (≈ 8.61 µM)
20 | C[C@@H](O)[C@H]1C(=O)N2C(C(=O)O)=C(S[C@@H]3CN[C@H](C(=O)Nc4cccc(C(=O)O)c4)C3)[C@H](C)[C@H]12 | 0.007 µg/mL (≈ 0.0147 µM)
21 | CO[C@@]1(NC(=O)Cc2cccs2)C(=O)N2C(C(=O)O)=C(COC(N)=O)CS[C@@H]21 [CEFOXITIN] | 2 µg/mL (≈ 4.68 µM)

system: Klebsiella pneumoniae; assay: Antibacterial activity against porin deficient OmpA positive extended-spectrum beta-lactamase producing Klebsiella pneumoniae KPBj1 revertant by disk agar diffusion method; type: functional; conditions: not given

Row | SMILES | MIC
22 | CCn1cc(C(=O)O)c(=O)c2ccc(C)nc21 [NALIDIXIC ACID] | 4 µg/mL (≈ 17.2 µM)
23 | C[C@@H](O)[C@H]1C(=O)N2C(C(=O)O)=C(S[C@@H]3CN[C@H](C(=O)Nc4cccc(C(=O)O)c4)C3)[C@H](C)[C@H]12 | 2 µg/mL (≈ 4.21 µM)
24 | CO[C@@]1(NC(=O)Cc2cccs2)C(=O)N2C(C(=O)O)=C(COC(N)=O)CS[C@@H]21 [CEFOXITIN] | 32 µg/mL (≈ 74.9 µM)

system: Klebsiella pneumoniae; assay: Antibacterial activity against porin, OmpA positive Klebsiella pneumoniae KPBj3 expressing efflux system by disk agar diffusion method; type: functional; conditions: not given

Row | SMILES | MIC
25 | CCn1cc(C(=O)O)c(=O)c2ccc(C)nc21 [NALIDIXIC ACID] | 32 µg/mL (≈ 138 µM)
26 | C[C@@H](O)[C@H]1C(=O)N2C(C(=O)O)=C(S[C@@H]3CN[C@H](C(=O)Nc4cccc(C(=O)O)c4)C3)[C@H](C)[C@H]12 | 0.007 µg/mL (≈ 0.0147 µM)
27 | CO[C@@]1(NC(=O)Cc2cccs2)C(=O)N2C(C(=O)O)=C(COC(N)=O)CS[C@@H]21 [CEFOXITIN] | 4 µg/mL (≈ 9.36 µM)

system: Klebsiella pneumoniae; assay: Antibacterial activity against porin deficient OmpA positive Klebsiella pneumoniae KPBj5 expressing efflux system by disk agar diffusion method; type: functional; conditions: not given

Row | SMILES | MIC
28 | CCn1cc(C(=O)O)c(=O)c2ccc(C)nc21 [NALIDIXIC ACID] | 8 µg/mL (≈ 34.4 µM)
29 | C[C@@H](O)[C@H]1C(=O)N2C(C(=O)O)=C(S[C@@H]3CN[C@H](C(=O)Nc4cccc(C(=O)O)c4)C3)[C@H](C)[C@H]12 | 0.25 µg/mL (≈ 0.526 µM)
30 | CO[C@@]1(NC(=O)Cc2cccs2)C(=O)N2C(C(=O)O)=C(COC(N)=O)CS[C@@H]21 [CEFOXITIN] | 32 µg/mL (≈ 74.9 µM)

system: Klebsiella pneumoniae; assay: Antibacterial activity against porin, OmpA positive Klebsiella pneumoniae KPBj1 expressing efflux system by disk agar diffusion method; type: functional; conditions: not given

Row | SMILES | MIC
31 | CCn1cc(C(=O)O)c(=O)c2ccc(C)nc21 [NALIDIXIC ACID] | 32 µg/mL (≈ 138 µM)
32 | C[C@@H](O)[C@H]1C(=O)N2C(C(=O)O)=C(S[C@@H]3CN[C@H](C(=O)Nc4cccc(C(=O)O)c4)C3)[C@H](C)[C@H]12 | 0.007 µg/mL (≈ 0.0147 µM)
33 | CO[C@@]1(NC(=O)Cc2cccs2)C(=O)N2C(C(=O)O)=C(COC(N)=O)CS[C@@H]21 [CEFOXITIN] | 8 µg/mL (≈ 18.7 µM)

system: Klebsiella pneumoniae; assay: Antibacterial activity against porin, OmpA positive Klebsiella pneumoniae KPBj5 expressing efflux system by disk agar diffusion method; type: functional; conditions: not given

Row | SMILES | MIC
34 | CCn1cc(C(=O)O)c(=O)c2ccc(C)nc21 [NALIDIXIC ACID] | 8 µg/mL (≈ 34.4 µM)
35 | C[C@@H](O)[C@H]1C(=O)N2C(C(=O)O)=C(S[C@@H]3CN[C@H](C(=O)Nc4cccc(C(=O)O)c4)C3)[C@H](C)[C@H]12 | 0.015 µg/mL (≈ 0.0315 µM)
36 | CO[C@@]1(NC(=O)Cc2cccs2)C(=O)N2C(C(=O)O)=C(COC(N)=O)CS[C@@H]21 [CEFOXITIN] | 8 µg/mL (≈ 18.7 µM)

system: Klebsiella pneumoniae; assay: Antibacterial activity against porin, OmpA positive Klebsiella pneumoniae KPBj5 revertant by disk agar diffusion method; type: functional; conditions: not given

Row | SMILES | MIC
37 | CCn1cc(C(=O)O)c(=O)c2ccc(C)nc21 [NALIDIXIC ACID] | 2 µg/mL (≈ 8.61 µM)
38 | C[C@@H](O)[C@H]1C(=O)N2C(C(=O)O)=C(S[C@@H]3CN[C@H](C(=O)Nc4cccc(C(=O)O)c4)C3)[C@H](C)[C@H]12 | 0.007 µg/mL (≈ 0.0147 µM)
39 | CO[C@@]1(NC(=O)Cc2cccs2)C(=O)N2C(C(=O)O)=C(COC(N)=O)CS[C@@H]21 [CEFOXITIN] | 2 µg/mL (≈ 4.68 µM)

system: Klebsiella pneumoniae; assay: Antibacterial activity against porin deficient OmpA positive Klebsiella pneumoniae KPBj5 revertant by disk agar diffusion method; type: functional; conditions: not given

Row | SMILES | MIC
40 | CCn1cc(C(=O)O)c(=O)c2ccc(C)nc21 [NALIDIXIC ACID] | 2 µg/mL (≈ 8.61 µM)
41 | C[C@@H](O)[C@H]1C(=O)N2C(C(=O)O)=C(S[C@@H]3CN[C@H](C(=O)Nc4cccc(C(=O)O)c4)C3)[C@H](C)[C@H]12 | 0.25 µg/mL (≈ 0.526 µM)
42 | CO[C@@]1(NC(=O)Cc2cccs2)C(=O)N2C(C(=O)O)=C(COC(N)=O)CS[C@@H]21 [CEFOXITIN] | 16 µg/mL (≈ 37.4 µM)

system: Klebsiella pneumoniae; assay: Antibacterial activity against porin, OmpA positive Klebsiella pneumoniae KPBj1 revertant by disk agar diffusion method; type: functional; conditions: not given

Row | SMILES | MIC
43 | CCn1cc(C(=O)O)c(=O)c2ccc(C)nc21 [NALIDIXIC ACID] | 2 µg/mL (≈ 8.61 µM)
44 | C[C@@H](O)[C@H]1C(=O)N2C(C(=O)O)=C(S[C@@H]3CN[C@H](C(=O)Nc4cccc(C(=O)O)c4)C3)[C@H](C)[C@H]12 | 0.007 µg/mL (≈ 0.0147 µM)
45 | CO[C@@]1(NC(=O)Cc2cccs2)C(=O)N2C(C(=O)O)=C(COC(N)=O)CS[C@@H]21 [CEFOXITIN] | 2 µg/mL (≈ 4.68 µM)

system: Klebsiella pneumoniae; assay: Antibacterial activity against porin deficient OmpA positive Klebsiella pneumoniae KPBj3 expressing efflux system by disk agar diffusion method; type: functional; conditions: not given

Row | SMILES | MIC
46 | CCn1cc(C(=O)O)c(=O)c2ccc(C)nc21 [NALIDIXIC ACID] | 32 µg/mL (≈ 138 µM)
47 | C[C@@H](O)[C@H]1C(=O)N2C(C(=O)O)=C(S[C@@H]3CN[C@H](C(=O)Nc4cccc(C(=O)O)c4)C3)[C@H](C)[C@H]12 | 0.25 µg/mL (≈ 0.526 µM)
48 | CO[C@@]1(NC(=O)Cc2cccs2)C(=O)N2C(C(=O)O)=C(COC(N)=O)CS[C@@H]21 [CEFOXITIN] | 32 µg/mL (≈ 74.9 µM)

system: Klebsiella pneumoniae; assay: Antibacterial activity against porin, OmpA positive Klebsiella pneumoniae ATCC 138821 by disk agar diffusion method; type: functional; conditions: not given

Row | SMILES | MIC
49 | CCn1cc(C(=O)O)c(=O)c2ccc(C)nc21 [NALIDIXIC ACID] | 4 µg/mL (≈ 17.2 µM)
50 | C[C@@H](O)[C@H]1C(=O)N2C(C(=O)O)=C(S[C@@H]3CN[C@H](C(=O)Nc4cccc(C(=O)O)c4)C3)[C@H](C)[C@H]12 | 0.007 µg/mL (≈ 0.0147 µM)
51 | CO[C@@]1(NC(=O)Cc2cccs2)C(=O)N2C(C(=O)O)=C(COC(N)=O)CS[C@@H]21 [CEFOXITIN] | 2 µg/mL (≈ 4.68 µM)
